Measured values reported in patent publication US10316039B2, “P2X3 and/or P2X2/3 compounds and methods” (Asana Biosciences, LLC, priority 2013, dated 2019).

Tests used:
P2X3 = target: T1, P2X3 (UniProt P56373); test: P2X3 FLIPR intracellular calcium assay; type: cell-based; conditions: agonist at EC75, species (human or rat) not given
T1 sequence (P56373 1-397): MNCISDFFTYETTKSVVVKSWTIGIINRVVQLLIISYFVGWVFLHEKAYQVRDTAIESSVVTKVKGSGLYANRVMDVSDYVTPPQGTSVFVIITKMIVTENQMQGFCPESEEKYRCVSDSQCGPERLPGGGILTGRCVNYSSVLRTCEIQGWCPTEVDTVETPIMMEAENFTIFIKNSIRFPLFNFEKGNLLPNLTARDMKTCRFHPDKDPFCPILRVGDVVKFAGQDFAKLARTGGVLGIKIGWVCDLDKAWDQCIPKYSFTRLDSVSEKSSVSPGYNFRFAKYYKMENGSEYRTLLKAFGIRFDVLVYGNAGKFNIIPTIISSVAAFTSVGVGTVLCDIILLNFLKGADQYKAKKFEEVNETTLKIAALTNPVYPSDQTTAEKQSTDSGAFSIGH
In short: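 Human P2X3-HEK, human P2X2/3-TRex293, rat P2X2/3-TRex293 or rat P2X3 TRex-CHO cells loaded with Calcium 4 dye (1.8 mM probenecid, pH 7.4).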

P2X2/3 = target: T2, P2X2/3 (Homo sapiens, UniProt P56373+Q9UBL9); test: P2X2/3 FLIPR intracellular calcium assay; type: cell-based; conditions: agonist at EC75, species (human or rat) not given
T2 sequence (Q9UBL9 1-471): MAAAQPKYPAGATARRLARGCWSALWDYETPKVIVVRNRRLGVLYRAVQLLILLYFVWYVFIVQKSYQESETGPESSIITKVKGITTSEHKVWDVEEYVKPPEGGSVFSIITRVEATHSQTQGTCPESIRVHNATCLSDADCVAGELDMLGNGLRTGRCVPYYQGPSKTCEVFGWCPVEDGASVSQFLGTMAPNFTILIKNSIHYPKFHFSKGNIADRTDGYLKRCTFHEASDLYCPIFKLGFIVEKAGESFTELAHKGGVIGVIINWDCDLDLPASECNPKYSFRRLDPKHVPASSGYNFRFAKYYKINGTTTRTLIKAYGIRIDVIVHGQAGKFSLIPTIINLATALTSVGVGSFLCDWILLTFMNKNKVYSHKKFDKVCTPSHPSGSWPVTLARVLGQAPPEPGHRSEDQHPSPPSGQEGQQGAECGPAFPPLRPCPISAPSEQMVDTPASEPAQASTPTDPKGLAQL
T2 sequence (P56373 1-397): T1 sequence (P56373 1-397)
In short: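 Stable human P2X2/3 TRex293 cells (doxycycline-induced) loaded with Calcium 4 dye; compounds, 11-point half-log series from 2 mM top stock, preincubated 15 min at RT in HBSS/HEPES pH 7.4 with 1.8 mM CaCl2. Agonist added at EC75; fluorescence change versus no-compound wells gave IC50.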

| IC50 (P2X3) | IC50 (P2X2/3) | SMILES |
| --- | --- | --- |
| 1 to 100 nM | 1000 to 10000 nM | Cc1ccc(-c2cnc3c(Nc4ncc(C)s4)cc(C(=O)N[C@@H](C)c4nnc[nH]4)cn23)s1 [Example 94] |
| 1 to 100 nM | 1 to 100 nM | CC[C@H](NC(=O)c1cc(-n2nncc2C(C)(C)C)c2ncc(-c3ccc(C)s3)n2c1)c1nnc[nH]1 [Example 67] |
| 1 to 100 nM | 1 to 100 nM | Cc1ccc(-c2cnc3c(-c4c(C)noc4C)cc(C(=O)N[C@@H](C)c4nnc[nH]4)cn23)s1 [Example 102] |
| 100 to 1000 nM | 100 to 1000 nM | CCc1nnnn1-c1cc(C(=O)NCc2ccc(C3CC3)nc2)cn2c(-c3ccc(C)s3)cnc12 [Example 154] |
| 100 to 1000 nM | 1000 to 10000 nM | Cc1cnc(CNC(=O)c2cc(-n3nnnc3C(F)F)c3ncc(-c4ncc(C)s4)n3c2)cn1 [Example 185] |
| 1 to 100 nM | 1 to 100 nM | Cc1ncc(CNC(=O)c2cc(-n3nnnc3C(F)F)c3ncc(-c4ncc(C)s4)n3c2)cn1 [Example 172] |
| 100 to 1000 nM | 1 to 100 nM | CC[C@H](NC(=O)c1cc(N2CCC(F)(F)CC2)c2ncc(-c3ccc(C)s3)n2c1)c1nnc[nH]1 [Example 144] |
| 1 to 100 nM | 1000 to 10000 nM | Cc1ccc(-c2cnc3c(-c4cnn(C)c4)cc(C(=O)NCc4ccn(C)c(=O)c4)cn23)s1 [Example 99] |
| 1 to 100 nM | 100 to 1000 nM | Cc1ncc(CNC(=O)c2cc(-n3nncc3C(F)(F)F)c3ncc(-c4ncc(C)s4)n3c2)cn1 [Example 68] |
| 1 to 100 nM | 100 to 1000 nM | COC1CCCN(c2cc(C(=O)N[C@@H](C)c3nnc[nH]3)cn3c(-c4ccc(C)s4)cnc23)C1 (stereo partly shown) [Example 141] |
| 1 to 100 nM | 1 to 100 nM | Cc1ccc(-c2cnc3c(-n4nncc4C4CCC4)cc(C(=O)N[C@@H](C)c4nnc[nH]4)cn23)s1 [Example 43] |
| > 10000 nM | 100 to 1000 nM | Cc1ccc(CNC(=O)c2cc(N3CCN(C(N)=O)CC3)c3ncc(-c4ccc(C)s4)n3c2)cn1 [Example 13, 8-(4-Carbamoylpiperazin-1-yl)-N-((6-methylpyridin-3-yl)methyl)-3-(5-methylthiophen-2-yl)imidazo[1,2-a]pyridine-6-carboxamide] |
| 1 to 100 nM | 1 to 100 nM | Cc1noc([C@@H](C)NC(=O)c2cc(-n3nncc3C(F)F)c3ncc(-c4ccc(C)s4)n3c2)n1 [Example 85] |
| 100 to 1000 nM | 1000 to 10000 nM | C[C@H](NC(=O)c1cc(-n2nnnc2C2CC2)c2ncc(-c3ccc(Cl)s3)n2c1)c1nnc[nH]1 [Example 175] |
| 1 to 100 nM | 1 to 100 nM | CC[C@H](NC(=O)c1cc(-n2nncc2C(C)C)c2ncc(-c3ccc(C)s3)n2c1)c1nnc[nH]1 [Example 61] |
| 1 to 100 nM | 1000 to 10000 nM | Cc1ccc(-c2cnc3c(N4CCC(C(F)(F)F)CC4)cc(C(=O)N[C@@H](C)c4nnc[nH]4)cn23)s1 [Example 134] |
| > 10000 nM | 1 to 100 nM | CCc1cnnn1-c1cc(C(=O)N[C@H](C)c2nc(C)no2)cn2c(-c3ccc(C)s3)cnc12 [Example 88] |
| 1 to 100 nM | 1000 to 10000 nM | Cc1ccc(-c2cnc3c(Nc4ccccc4)cc(C(=O)NCc4ccn(C)c(=O)c4)cn23)s1 [Example 90] |
| > 10000 nM | 100 to 1000 nM | CCc1ccnn1-c1cc(C(=O)NCc2ccc(C)nc2)cn2c(-c3ccc(C)s3)cnc12 [Example 6, 8-(5-Ethyl-1H-pyrazol-1-yl)-N-((6-methylpyridin-3-yl)methyl)-3-(5-methylthiophen-2-yl)imidazo[1,2-a]pyridine-6-carboxamide] |

| IC50 (P2X3) | IC50 (P2X2/3) | SMILES |
| --- | --- | --- |
| 1 to 100 nM | 1 to 100 nM | CC[C@H](NC(=O)c1cc(-n2nnnc2C(F)F)c2ncc(-c3ccc(Cl)s3)n2c1)c1nnc[nH]1 [Example 174] |
| 1 to 100 nM | 1 to 100 nM | COc1ccc(CNC(=O)c2cc(-n3nncc3C(F)F)c3ncc(-c4ccc(C)s4)n3c2)cn1 [Example 83] |
| 100 to 1000 nM | 100 to 1000 nM | Cc1ccc(-c2cnc3c(NC4CCCCC4)cc(C(=O)N[C@@H](C)c4nnc[nH]4)cn23)s1 [Example 121] |
| 1 to 100 nM | 1 to 100 nM | COc1ncc(CNC(=O)c2cc(-n3nnnc3C(F)F)c3ncc(-c4ccc(C)s4)n3c2)cn1 [Example 169] |
| 1 to 100 nM | 100 to 1000 nM | CCc1cnnn1-c1cc(C(=O)NCc2cnc(C)nc2)cn2c(-c3ncc(C)s3)cnc12 [Example 75] |
| 100 to 1000 nM | 100 to 1000 nM | Cc1ccc(CNC(=O)c2cc(-n3nnnc3C(F)F)c3ncc(-c4ncc(C)s4)n3c2)cn1 [Example 173] |
| 1 to 100 nM | 1 to 100 nM | CC[C@H](NC(=O)c1cc(-c2c(C)noc2C)c2ncc(-c3ccc(C)s3)n2c1)c1nnc[nH]1 [Example 108] |
| 1000 to 10000 nM | 100 to 1000 nM | Cc1ccc(-c2cnc3c(-n4c(C)nnc4C)cc(C(=O)N[C@@H](C)c4nnc[nH]4)cn23)s1 [Example 3, (S)—N-(1-(4H-1,2,4-Triazol-3-yl)ethyl)-8-(3,5-dimethyl-4H-1,2,4-triazol-4-yl)-3-(5-methylthiophen-2-yl)imidazo[1,2-a]pyridine-6-carboxamide] |
| 1 to 100 nM | 100 to 1000 nM | CC[C@H](NC(=O)c1cc(N2CCC(OC)CC2)c2ncc(-c3ccc(C)s3)n2c1)c1nnc[nH]1 [Example 146] |
| 1 to 100 nM | 100 to 1000 nM | CCC(=O)N(C)c1cc(C(=O)N[C@@H](C)c2nnc[nH]2)cn2c(-c3ccc(C)s3)cnc12 [Example 187] |
| 1 to 100 nM | 100 to 1000 nM | Cc1ccc(-c2cnc3c(-c4cnn(CC5CC5)c4)cc(C(=O)N[C@@H](C)c4nnc[nH]4)cn23)s1 [Example 104] |
| 1 to 100 nM | 1 to 100 nM | Cc1nnc([C@@H](C)NC(=O)c2cc(-n3nnnc3C(F)F)c3ncc(-c4ccc(C)s4)n3c2)o1 [Example 180] |
| 100 to 1000 nM | 1000 to 10000 nM | Cc1ccc(-c2cnc3c(-n4nnnc4C(C)C)cc(C(=O)NC(C)c4cnccn4)cn23)s1 (stereo not shown) [Example 159] |
| 1 to 100 nM | 1 to 100 nM | Cc1ccc(-c2cnc3c(-n4nncc4C(C)C)cc(C(=O)N[C@@H](C)c4nnc[nH]4)cn23)s1 [Example 37] |
| 1 to 100 nM | 100 to 1000 nM | COC1CCN(c2cc(C(=O)N[C@@H](C)c3nnc[nH]3)cn3c(-c4ccc(C)s4)cnc23)CC1 [Example 140] |
| 1 to 100 nM | 1 to 100 nM | CCCc1nnnn1-c1cc(C(=O)N[C@@H](C)c2nnc[nH]2)cn2c(-c3ccc(C)s3)cnc12 [Example 179] |
| 100 to 1000 nM | 1000 to 10000 nM | Cc1ccc(-c2cnc3c(-c4cnn(CC(N)=O)c4)cc(C(=O)N[C@@H](C)c4nnc[nH]4)cn23)s1 [Example 112] |
| 1 to 100 nM | 100 to 1000 nM | Cc1ccc(-c2cnc3c(-c4cnn(CCF)c4)cc(C(=O)N[C@@H](C)c4nnc[nH]4)cn23)s1 [Example 105] |
| 1 to 100 nM | 100 to 1000 nM | Cc1ccc(-c2cnc3c(N4CCC(C)CC4)cc(C(=O)NCc4ccn(C)c(=O)c4)cn23)s1 [Example 128] |
